From patent US6921770B2 (priority 2000, dated 2005)

Test system: rice blast fungi
Assay type: in vivo, Pyricularia grisea

Row | SMILES | Inhibiting Ratio (%) (at 250 ppm)
1 | Br.Cc1ccc(NC(=O)Cc2csc(=Nc3cccc(F)c3)n2C)cc1 [Compound 48, 2-(3-fluorophenylimino)-3-methyl-4-[N-(4-methylphenyl)carbamoylmethyl]-1,3-thiazol-4-ine hydrobromide] | 100
2 | Br.Cc1ccc(N=c2scc(CC(=O)Nc3cccc(Cl)c3)n2C)c(F)c1 [Compound 67, 2-(2-fluoro-4-methylphenylimino)-3-methyl-4-[N-(3-chlorophenyl)carbamoylmethyl]-1,3-thiazol-4-ine hydrobromide] | 100
3 | Cl.Cn1c(CC(=O)Nc2ccc(Cl)cc2)csc1=Nc1ccc(C(F)(F)F)cc1 [Compound 98, 2-(4-trifluoromethylphenylimino)-3-methyl-4-[N-(4-chlorophenyl)carbamoylmethyl]-1,3-thiazol-4-ine hydrochloride] | 96
4 | COc1ccc(NC(=O)Cc2csc(=Nc3ccc(C)cc3C)n2C)cc1.Cl [Compound 196, 2-(2,4-dimethylphenylimino)-3-methyl-4-[N-(4-methoxyphenyl)carbamoylmethyl]-1,3-thiazol-4-ine hydrochloride] | 92
5 | Cl.Cn1c(CC(=O)Nc2ccc(Br)cc2)csc1=Nc1cccc(Cl)c1F [Compound 134, 2-(3-chloro-2-fluorophenylimino)-3-methyl-4-[N-(4-bromophenyl)carbamoylmethyl]-1,3-thiazol-4-ine hydrochloride] | 98
6 | Br.Cc1ccc(NC(=O)Cc2csc(=Nc3ccc(F)c(Cl)c3)n2C)cc1 [Compound 51, 2-(3-chloro-4-fluorophenylimino)-3-methyl-4-[N-(4-methylphenyl)carbamoylmethyl]-1,3-thiazol-4-ine hydrobromide] | 99
7 | Cl.Cn1c(CC(=O)Nc2ccccc2F)csc1=Nc1cccc(Br)c1 [Compound 153, 2-(3-bromophenylimino)-3-methyl-4-[N-(2-fluorophenyl)carbamoylmethyl]-1,3-thiazol-4-ine hydrochloride] | 99
8 | CCCCc1ccc(N=c2scc(CC(=O)Nc3ccc(C#N)cc3)n2C)cc1.Cl [Compound 221, 2-[4-(n-butyl)phenylimino]-3-methyl-4-[N-(4-cyanophenyl)carbamoylmethyl]-4-thiazoline hydrochloride] | 87
9 | CCCCc1ccc(N=c2scc(CC(=O)Nc3ccc(Br)cc3)n2C)cc1.Cl [Compound 147, 2-[4-(n-butyl)phenylimino]-3-methyl-4-[N-(4-bromophenyl)carbamoylmethyl]-1,3-thiazol-4-ine hydrochloride] | 96
10 | Br.Cn1c(CC(=O)Nc2cccc(Cl)c2)csc1=Nc1ccc(OC(F)(F)F)cc1 [Compound 58, 2-(4-trifluoromethoxyphenylimino)-3-methyl-4-[N-(3-chlorophenyl)carbamoylmethyl]-1,3-thiazol-4-ine hydrobromide] | 96
11 | Br.Cn1c(CC(=O)Nc2ccc(Cl)cc2)csc1=Nc1ccccc1 [Compound 305, 2-phenylimino-3-methyl-4-[N-(4-chlorophenyl)carbamoylmethyl]-1,3-thiazol-4-ine hydrobromide] | 100
12 | Br.Cc1cc(C)c(N=c2scc(CC(=O)Nc3ccccc3)n2C)c(C)c1 [Compound 321, 2-(2,4,6-trimethylphenylimino)-3-methyl-4-N-phenylcarbamoyl methyl-1,3-thiazol-4-ine hydrobromide] | 97
13 | Br.CCCCc1ccc(N=c2scc(CC(=O)Nc3cccc(Cl)c3)n2C)cc1 [Compound 56, 2-[4-(n-butyl)phenylimino]-3-methyl-4-[N-(3-chlorophenyl)carbamoylmethyl]-1,3-thiazol-4-ine hydrobromide] | 96
14 | Cc1cc(Br)ccc1N=c1scc(CC(=O)Nc2ccc(Br)cc2)n1C.Cl [Compound 142, 2-(4-bromo-2-methylphenylimino)-3-methyl-4-[N-(4-bromophenyl)carbamoylmethyl]-1,3-thiazol-4-ine hydrochloride] | 98
15 | Br.Cn1c(CC(=O)Nc2cccc(Cl)c2)csc1=Nc1cc(Cl)cc(Cl)c1 [Compound 21, 2-(3,5-dichlorophenylimino)-3-methyl-4-[N-(3-chlorophenyl)carbamoylmethyl]-1,3-thiazol-4-ine hydrobromide] | 88
16 | Br.COc1ccc(NC(=O)Cc2csc(=Nc3ccc(Oc4ccccc4)cc3)n2C)cc1 [Compound 320, 2-(4-phenoxyphenylimino)-3-methyl-4-[N-(4-methoxyphenyl)carbamoylmethyl]-1,3-thiazol-4-ine hydrobromide] | 100
17 | Br.CC(C)=CCOc1cc(N=c2scc(CC(=O)Nc3ccccc3)n2C)ccc1Cl [Compound 22, 2-(4-chloro-3-(3,3-dimethylallyloxy)phenylimino)-3-methyl-4-(N-phenylcarbamoylmethyl)-1,3-thiazol-4-ine hydrobromide] | 97

Row | SMILES | Inhibiting Ratio (%) (at 250 ppm)
18 | COc1ccc(NC(=O)Cc2csc(=Nc3ccc(Cl)cc3F)n2C)cc1.Cl [Compound 207, 2-(4-chloro-2-fluorophenylimino)-3-methyl-4-[N-(4-methoxyphenyl)carbamoylmethyl]-1,3-thiazol-4-ine hydrochloride] | 93
19 | Cc1ccc(N=c2scc(CC(=O)Nc3ccc(C)c(Cl)c3)n2C)c(C)c1.Cl [Compound 227, 2-(2,4-dimethylphenylimino)-3-methyl-4-[N-(3-chloro-4-methylphenyl)carbamoylmethyl]-4-thiazoline hydrochloride] | 97
20 | Cl.Cn1c(CC(=O)Nc2ccc(Br)cc2)csc1=Nc1cc(Cl)cc(Cl)c1 [Compound 138, 2-(3,5-dichlorophenylimino)-3-methyl-4-[N-(4-bromophenyl)carbamoylmethyl]-1,3-thiazol-4-ine hydrochloride] | 95
21 | Cc1ccc(NC(=O)Cc2csc(=Nc3cc(OC(C)C)c(Cl)cc3F)n2C)cc1.Cl [Compound 168, 2-(4-chloro-5-isopropoxy-2-fluorophenylimino)-3-methyl-4-[N-(4-methylphenyl)carbamoylmethyl-]-1,3-thiazol-4-ine hydrochloride] | 92
22 | Cc1ccc(NC(=O)Cc2csc(=Nc3ccc(Cl)cc3)n2C)cc1Cl.Cl [Compound 233, 2-(4-chlorophenylimino)-3-methyl-4-[N-(3-chloro-4-methylphenyl)carbamoylmethyl]-4-thiazoline hydrochloride] | 97
23 | Br.Cc1ccc(NC(=O)Cc2csc(=Nc3ccc(C(F)(F)F)cc3)n2C)cc1 [Compound 14, 2-(4-trifluoromethylphenylimino)-3-methyl-4-[N-(4-methylphenyl)carbamoylmethyl]-1,3-thiazol-4-ine hydrobromide] | 99
24 | Cl.Cn1c(CC(=O)Nc2ccc(Cl)cc2)csc1=Nc1ccc(Cl)cc1F [Compound 158, 2-(4-chloro-2-fluorophenylimino)-3-methyl-4-[N-(4-chlorophenyl)carbamoylmethyl]-1,3-thiazol-4-ine hydrochloride] | 90
25 | Br.COc1ccc(N=c2scc(CC(=O)Nc3cccc(C(F)(F)F)c3)n2C)cc1 [Compound 36, 2-(4-methoxyphenylimino)-3-methyl-4-[N-(3-trifluoromethylphenyl)carbamoylmethyl]-1,3-thiazol-4-ine hydrobromide] | 98
26 | Cc1ccc(NC(=O)Cc2csc(=Nc3cc(Cl)cc(Cl)c3)n2C)cc1Cl.Cl [Compound 230, 2-(3,5-dichlorophenylimino)-3-methyl-4-[N-(3-chloro-4-methylphenyl)carbamoylmethyl]-4-thiazoline hydrochloride] | 93
27 | Br.Cc1ccccc1N=c1scc(CC(=O)Nc2ccc(Cl)cc2)n1C [Compound 310, 2-(2-methylphenylimino)-3-methyl-4-[N-(4-chlorophenyl)carbamoylmethyl]1,3-thiazol-4-ine hydrobromide] | 100
28 | Br.COc1ccc(NC(=O)Cc2csc(=Nc3ccccc3OC)n2C)cc1 [Compound 311, 2-(2-methoxyphenylimino)-3-methyl-4-[N-(4-methoxyphenyl)carbamoylmethyl]-1,3-thiazol-4-ine hydrobromide] | 95
29 | Br.Cn1c(CC(=O)Nc2cccc(C(F)(F)F)c2)csc1=Nc1cccc(C(F)(F)F)c1 [Compound 7, 2-(3-trifluoromethylphenylimino)-3-methyl-4-[N-(3-trifluoromethylphenyl)carbamoylmethyl]-1,3-thiazol-4-ine hydrobromide] | 97
30 | Cc1ccc(NC(=O)Cc2csc(=Nc3ccc(OC(F)(F)F)cc3)n2C)cc1Cl.Cl [Compound 231, 2-(4-trifluoromethoxyphenylimino)-3-methyl-4-[N-(3-chloro-4-methylphenyl)carbamoylmethyl]-4-thiazoline hydrochloride] | 93
31 | COc1ccc(N=c2scc(CC(=O)Nc3ccccc3F)n2C)cc1.Cl [Compound 78, 2-(4-methoxyphenylimino)-3-methyl-4-[N-(2-fluorophenyl)carbamoylmethyl]-1,3-thiazol-4-ine hydrochloride] | 91
32 | Cl.Cn1c(CC(=O)Nc2ccc(Cl)cc2)csc1=Nc1ccccc1-c1ccccc1 [Compound 131, 2-(2-phenylphenylimino)-3-methyl-4-[N-(4-chlorophenyl)carbamoylmethyl]-1,3-thiazol-4-ine hydrochloride] | 96
33 | Cl.Cn1c(CC(=O)Nc2ccccc2F)csc1=Nc1ccccc1F [Compound 89, 2-(2-fluorophenylimino)-3-methyl-4-[N-(2-fluorophenyl)carbamoylmethyl]-1,3-thiazol-4-ine hydrochloride] | 83
